# Values of other authors in publication PMC7439511 (Science Advances, 2020).
# System: RACK7 (ZMYND8)
row,RACK7 binding to N-terminal tail of histone H3,Substance
1,bind,"H3K4me0: H3K4me0 (H3) peptide, amino acids 1 to 21"
2,bind,"H3K4me1: H3K4me1 peptide, amino acids 1 to 21"
